Source: patent publication US20210330611A1, “THERAPY FOR NEUROLOGICAL DISEASES/DISORDERS” (priority 2020, published 2021)
Counter-ions that a name gives are not always drawn. Like-named read-outs stand apart in the source and are kept apart here.

Key:
mouse BMDMs = assay: ROS production (DHE) in fibrin-stimulated mouse BMDMs; assay type: cell-based; details: fibrin 24 h, 5 μM inhibitor, FIG. 6b
Description: Bone marrow—derived macrophage cultures. […]. In brief, bone-marrow cells were isolated from tibia and femur of C57BL/6 mice, Ggt1^+/+ mice or Ggt1^dwg/dwg mice and cultured in RPMI-1640 medium supplemented with 10% FBS, 1% penicillin-streptomycin (Corning), and 10 ng/ml murine M-CSF (14-8983-80, Thermo Fisher Scientific). On days 6-7, adherent BMDMs were harvested by adding PBS with 5 mM EDTA to the plates and used for assays.
Human macrophage cultures. Human peripheral blood mononuclear cells (PBMCs) were purchased from AllCells, LLC (Alameda, Calif.). To differentiate PBMC into monocyte-derived macrophages, 2×10^6 PBMC/mL were plated in RPMI-1640 media supplemented with 10% FBS, 1% penicillin-streptomycin (Corning), and 50 ng/ml human M-CSF (300-25, Peprotech) in tissue-culture treated dishes (Corning). After 24 h, non-adherent cells were removed, and adherent cells were cultivated for 7-8 additional days at 37° C. in 5% CO2 to promote their full differentiation into macrophages. Oxidant detection with DHE. Intracellular concentrations of ROS were measured using dihydroethidium (DHE) as described (9). […] The DHE fluorescence was detected at an excitation/emission wavelength of 518 nm/605 nm using a SpectraMax M5 microplate reader (Molecular Devices) with SoftMax Pro 5.2 software (Phoenix Technologies Ltd.).

human macrophages = assay: ROS production (DHE) in fibrin-stimulated human macrophages; assay type: cell-based; details: fibrin 24 h, 5 μM inhibitor, FIG. 6b
Description: Human macrophage cultures. Human peripheral blood mononuclear cells (PBMCs) were purchased from AllCells, LLC (Alameda, Calif.). To differentiate PBMC into monocyte-derived macrophages, 2×10^6 PBMC/mL were plated in RPMI-1640 media supplemented with 10% FBS, 1% penicillin-streptomycin (Corning), and 50 ng/ml human M-CSF (300-25, Peprotech) in tissue-culture treated dishes (Corning). After 24 h, non-adherent cells were removed, and adherent cells were cultivated for 7-8 additional days at 37° C. in 5% CO2 to promote their full differentiation into macrophages. Oxidant detection with DHE. Intracellular concentrations of ROS were measured using dihydroethidium (DHE) as described (9). Cultured BMDMs or human macrophages were incubated in medium containing 5 μM DHE (Invitrogen) for 30 min Cells were plated on 96-well, black μ-clear-bottom microtiter plates (Greiner Bio-One) pre-coated with 25 μg/ml fibrin. For GGT inhibition, BMDMs or human macrophages were pre-incubated with 5 μM acivicin or GGsTop for 1 h, and the cells were plated on fibrin-coated 96-well plates as described above. PBS was used as vehicle control. Cells were then incubated for 24-48 h and fixed with 4% PFA for 10 min. The DHE fluorescence was detected at an excitation/emission wavelength of 518 nm/605 nm using a SpectraMax M5 microplate reader (Molecular Devices) with SoftMax Pro 5.2 software (Phoenix Technologies Ltd.).

GGT = molecular target: T1, GGT (Mus musculus, UniProt Q60928); assay: GGT activity assay in fibrin-stimulated BMDMs (enzymatic kit, ProteoGREEN-gGlu probe); assay type: cell-based; details: FIG. 6c, FIG. 13A, B
T1 construct: GGT activity in BMDMs left unstimulated or stimulated with fibrin after acivicin or vehicle control treatment; endogenous in cells; host or cells: mouse bone marrow-derived macrophages (BMDMs), fibrin-stimulated
T1 sequence (Q60928 380-568): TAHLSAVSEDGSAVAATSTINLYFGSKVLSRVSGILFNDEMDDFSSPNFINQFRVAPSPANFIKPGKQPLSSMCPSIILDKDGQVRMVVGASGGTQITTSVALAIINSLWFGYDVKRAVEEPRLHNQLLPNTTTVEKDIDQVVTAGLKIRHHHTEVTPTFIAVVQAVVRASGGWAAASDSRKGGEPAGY
T1 sequence (Q60928 1-379): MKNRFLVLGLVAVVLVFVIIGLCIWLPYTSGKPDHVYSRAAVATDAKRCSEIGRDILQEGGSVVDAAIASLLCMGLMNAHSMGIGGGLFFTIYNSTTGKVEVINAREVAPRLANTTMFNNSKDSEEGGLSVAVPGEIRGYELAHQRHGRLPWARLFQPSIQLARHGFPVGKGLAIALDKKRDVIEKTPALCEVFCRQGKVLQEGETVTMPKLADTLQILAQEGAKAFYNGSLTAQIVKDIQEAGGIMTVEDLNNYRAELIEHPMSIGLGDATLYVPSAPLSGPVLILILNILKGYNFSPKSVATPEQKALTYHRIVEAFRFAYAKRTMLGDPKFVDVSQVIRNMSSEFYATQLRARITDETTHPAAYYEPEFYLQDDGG
Description: GGT activity assay. GGT activity was measured using the MaxDiscovery gamma-Glutamyl Transferase (GGT) Enzymatic Assay Kit (Bioo Scientific) according to the manufacturer's protocol. […]. For in vivo GGT activity assay, spinal cord tissues from the onset of MOG35-55 EAE or LPS-injected substantia nigra area at 12 h were prepared. Tissues were homogenized in 0.1 M Tris-HCl and centrifuged at 13,000 g for 30 min at 4° C. The supernatant was collected and subsequently assessed for GGT activity. The absorbance at 405 nm was detected with a SpectraMax M5 microplate reader (Molecular Devices) with SoftMax Pro 5.2 software (Phoenix Technologies Ltd.). The GGT activity in IU/1 was calculated following the manufacturer's protocol by multiplying the average increase in absorbance at 405 nm over 10 min GGT activity was also measured using a fluorescent probe, ProteoGREEN-gGlu (Goryo Chemical, Hokkaido, Japan), according to the manufacturer's protocol. Cultured BMDMs were plated on 96-well, black μ-clear-bottom microtiter plates (Greiner Bio-One) pre-coated with 25 μg/ml fibrin. […] The fluorescence intensity (excitation/emission filter pairs of 488 nm/520 nm) was measured using a SpectraMax M5 microplate reader (Molecular Devices) with SoftMax Pro 5.2 software (Phoenix Technologies).

intracellular GSH = assay type: cell-based, mouse
Description: Real-time imaging of glutathione. The real-time GSH dynamics in living BMDMs was determined with the fluorescent GSH probe, RealThiol RT-AM as described (37). Cells were plated on 2-well chamber slide (Nunc) pre-coated with 25 μg/ml fibrin. Cells were stimulated with fibrin with or without 5 μM acivicin or GGsTop. The GSH synthesis inhibitor, buthionine sulfoximine (BSO, Sigma-Aldrich) was used as positive control for reducing intracellular GSH levels at 100 μM. After 24 h incubation, cells were loaded with 1 μM RT-AM probe and were incubated for 5 min before imaging. The cells were kept at 37° C. during the entire experiment. […] For each independent experiment, laser power and detector settings were set using the control/untreated cells incubated with RT-AM alone as reference. All settings were kept constant throughout the experiment. […] The ratio calculated for each treatment was expressed as percentage from that of the untreated cells (control).

MOG35-55 EAE = assay: Active MOG35-55 EAE, clinical scores; assay type: in vivo, mouse; details: prophylactic, 5 mg/kg i.p. daily from day 0, FIG. 14B
renal reperfusion injury = details: cited from earlier work
[1] = tested on: fibrin-induced microglia activation; assay: Image-based assay of fibrin-induced microglia activation (HTS and dose response); assay type: cell-based, rat; details: for IC50 / inhibition at 10 µM: Rattus norvegicus, Microglia; for inhibition at 10 µM: primary microglia HTS, fibrin stimulation, increased cell size (>800 μm^2) as marker of activation, read-out: Fibrin % inhibition
[2] = tested on: LPS-induced microglia activation; assay: Image-based assay of LPS-induced microglia activation (HTS and dose response); assay type: cell-based, rat; details: Rattus norvegicus, Microglia; for inhibition at 10 µM: primary microglia HTS, LPS stimulation, increased cell size (>800 μm^2) as marker of activation, read-out: LPS % inhibition
[3] = tested on: fibrin- and LPS-induced microglia activation; assay: cells; assay type: cell-based, rat; details: for inhibition at 10 µM: Rattus norvegicus, Microglia
primary rat microglia [4] = details: rat
primary rat microglia [5] = details: rat; remark: listed apart in the source
in vitro [6] = details: rat, Cell Toxicity IC50 (uM) [cFib assay]
in vitro [7] = details: rat
primary rat microglia [8] = assay: Cell toxicity (dead cells, size <150 μm2) in LPS assay; details: read-out: Cell Toxicity IC50 (uM) [LPS assay]; LPS assay
[9] = 48 h, Table 1, dose response 0.001-20 μM, triplicates, primary rat microglia, 48 h, read-out: Fibrin IC50
[10] = Table 3, read-out: Fibrin IC50 (uM) (Suppl. Table 7)
[11] = dose response, fibrin-induced microglia activation, read-out: Fibrin IC50
[12] = fibrin-induced microglia activation, dose response, read-out: Fibrin IC50 (uM) (Suppl. Table 7)
[13] = 48 h, Table 1, dose response 0.001-20 μM, triplicates, primary rat microglia, 48 h, read-out: LPS IC50
[14] = LPS-induced microglia activation, dose response, read-out: LPS IC50 (uM) (Suppl. Table 7)
[15] = Table 3, read-out: LPS IC50 (uM) (Suppl. Table 7)
[16] = dose response, LPS-induced microglia activation, read-out: LPS IC50
[17] = HTS of 1907 compounds, quadrant by fibrin and LPS inhibition
[18] = Table 3, read-out: Cherry-picked Hit (Suppl. Table 7)
[19] = HTS hit classification, read-out: Hit
[20] = quadrant by fibrin and LPS inhibition in HTS of 1907 compounds
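For Fibrin % cell toxicity in this document: share of dead cells sized under 150 µm2 at 10 µM in fibrin-stimulated microglia HTS.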

Row | Structure (SMILES) | Fibrin Selectivity [1] | Fibrin Selectivity (LOG10) [1] | IC50 [1, 9] [µM] | IC50 [1, 10] [µM] | IC50 [1, 11] [µM] | IC50 [1, 12] [µM] | inhibition at 10 µM [1] [%] | IC50 [2, 13] [µM] | inhibition at 10 µM ([2]; 48 h) [%] | IC50 [2, 14] [µM] | IC50 [2, 15] [µM] | IC50 [2, 16] [µM] | Quadrant (FIG. 5b) [3, 17] | inhibition at 10 µM [3, 18] [%] | inhibition at 10 µM [3, 19] [%] | Quadrant (FIG. 5b) ([3]; Table 1, screen at 10 μM) | Quadrant (FIG. 5b) ([3]; Table 3, screen at 10 μM) | Quadrant (FIG. 5b) [3, 20] | Fibrin % cell toxicity (primary rat microglia [4]) [%] | LPS % cell toxicity (primary rat microglia [5]) [%] | also measured
1 | COP(=O)(CCC(N)C(=O)O)Oc1cccc(CC(=O)O)c1 (centres unmarked) [GGsTop] |  |  |  |  |  |  |  |  |  |  |  |  |  |  |  |  |  |  |  |  | ROS generation (DHE) in mouse macrophages (mouse BMDMs): inhibited; ROS generation (DHE) in human macrophages (human macrophages): inhibited; fibrin-induced GGT activity in BMDMs (GGT): inhibited; fibrin-induced degradation of glutathione (RealThiol F405/F488) (intracellular GSH): inhibited; neurologic signs (MOG35-55 EAE): reduced; oxidative stress markers (renal reperfusion injury): reduced; renal reperfusion injury (renal reperfusion injury): protected
2 | O=C(NC(Cc1cc(=O)[nH]c2ccccc12)C(=O)O)c1ccc(Cl)cc1 (centres unmarked) [Rebamipide, reference compound] | 6 | 0.80 | 2 | 2 | 2 | 2 | 65 | 11 | 72 | 11 | 11 | 11 | Q2 | > 50 | > 50 | Q2 | Q2 | Q2 | 1 | 2 | IC50 (in vitro [6]; Table 3): > 20 µM; IC50 (in vitro [6]; cFib assay): > 20 µM; IC50 (in vitro [7]): > 20000 nM; IC50 (primary rat microglia [8]): > 20 µM
3 | CC[C@]1(O)C[C@@H]2CN(CCc3c([nH]c4ccccc34)[C@@](C(=O)OC)(c3cc4c(cc3OC)N(C)[C@H]3[C@@](O)(C(=O)OC)[C@H](OC(C)=O)[C@]5(CC)C=CCN6CC[C@]43[C@@H]65)C2)C1 [Vinblastine sulfate, reference compound] | 11 | 1.05 | 0.02 | 0.02 | 0.02 | 0.02 | 106 | 0.2 | 108 | 0.2 | 0.2 | 0.2 | Q2 | > 50 | > 50 | Q2 | Q2 | Q2 | 2 | 8 | IC50 ([1]; Table 7, read-out: fib_IC50): 1.39 µM; IC50 ([2]; Table 7, read-out: LPS_IC50): 0.628 µM; Quadrant (FIG. 5b) ([3]; Table 2, screen at 10 μM): Q2; Activity ([3]; Table 7, fib = fibrin, LPS, tox = toxicity): fib/LPS; IC50 (in vitro [6]; Table 3): > 20 µM; IC50 (in vitro [6]; cFib assay): > 20 µM; IC50 (in vitro [7]): > 20000 nM; IC50 (primary rat microglia [8]): > 20 µM
